Columns and labels:
human melanoma (HT168M1) [1] = test: subcutaneous melanoma tumor model; format: in vivo, CB17/scid mice; conditions: 40 mg/kg per os, once a day five days per week for 3 weeks from day 7; FIG. 8
Experimental: Slightly anesthetized (diethyl ether narcosis) adult male CB17/scid mice born with immunodeficiency were subcutaneously (s.c.) implanted with 8×10^5 cells from in vitro human melanoma (HT168M1) cultures. After tumor cell inoculation animals were randomly assigned into three groups and their ears were marked. From the 7th day after the tumor cell inoculation mice were treated once a day five days per week for 3 weeks with compound 2 (40 mg/kg), or with compound 3b (40 mg/kg) per os by gavage. Control animals were treated with appropriate dilution of the carrier (DMSO) in a similar manner with similar frequency. Body weight changes were monitored once a week for each animal. When subcutaneous tumor reached palpable size its dimensions were also detected with caliper. Tumor volume was estimated by the formula π/6×a×b^2, where “a” is the longer and “b” is the shorter diameter. 30 days after implantation animals were sacrificed by bleeding in Nembutal (75 mg/kg) anesthesia. Evaluation was based on the mass of the primary tumor.
In this experiment the effect of compound 2 and compound 3b was tested in oral administration at the same dose (40 mg/kg).

human melanoma (HT168M1) [2] = test: spleen/liver animal model, melanoma cells injected into spleen; format: in vivo, CB17/scid mice
Experimental: Studies were conducted in the spleen/liver animal model. From 40 adult male CB17/scid mice, born with immunodeficiency, 20 were randomly selected, and they were further divided into two groups. Animals were marked on their ear one by one. 10 of the selected mice were treated with compound 3b (40 mg/kg) for 5 days (PRETREATED/3b), the other 10 animals were treated per os by gavage with appropriate dilution of DMSO serving as the carrier (PRETREATED/control). On the 5th treatment day all the 40 animals were anesthetized by Nembutal (75 mg/kg), and 4×10^4 cells from human melanoma (HT168M1) was injected into their spleens (i.s.). Local bleeding during the implantation was treated with Gelaspon resorbable gelatin sponge. On the 7th day after the implantation the non-treated 20 mice were randomly assigned into two groups and their ear was marked. 10 mice were treated from this time on with compound 3b (40 mg/kg) (POSTTREATED/3b), the other 10 were treated with appropriate dilution of the carrier (DMSO) with similar frequency (POSTTREATED/control) per os once a day five times per week for three weeks. Pretreated groups were not treated after the implantation. Body weight changes were monitored once a week for each animal. 31 days after implantation animals were sacrificed by bleeding in Nembutal (75 mg/kg) anesthesia. […]

SEC22b protein = target: T1, SEC22b protein (Homo sapiens, UniProt O75396); test: binding to vesicle movement protein
T1 sequence (O75396 1-215): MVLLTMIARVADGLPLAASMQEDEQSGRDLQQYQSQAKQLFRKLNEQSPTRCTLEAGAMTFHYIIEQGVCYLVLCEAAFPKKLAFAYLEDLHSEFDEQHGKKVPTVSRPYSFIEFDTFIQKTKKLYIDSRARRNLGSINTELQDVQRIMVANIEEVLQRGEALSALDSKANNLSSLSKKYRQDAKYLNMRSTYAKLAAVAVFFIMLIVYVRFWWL

[3] = tested on: RVH human melanoma cell line; test: cytotoxic effect on melanoma cell line, MTS assay, 48 hours; format: cell-based; conditions: 48 hours treatment; FIG. 4
Experimental: RVH human melanoma cell line was cultured in Minimum Essential Medium Eagle (Sigma, St. Louis, Mo., USA), Na-piruvate, Glutamine, Non-essential amino acids, penicillin (50 IU/ml)-streptomycin ([…]), 10% fetal bovine serum at 37° C., in 5% CO2. Cells were trypsinized with trypsin/EDTA (Sigma-Aldrich, St. Louis, Mo.) on every second day and were passed into 60 or 100 mm plates. When the culture reached the required cell number (approx. 10^6) for the planned experiment 50.00 cell/well was plated into 24 well plates (Costar® 24 Well TC-Treated Microplates) and left overnight to adhere to the bottom of the well. Addition of the substance was performed the following way: next day the culture media was drawn from the adhered cells and media comprising compounds of the present invention in appropriate concentration and well mixed therein was pipetted (2 ml/well) onto the cells. The substance to be examined was diluted in 100% DMSO, this way an amount of DMSO corresponding to the highest concentration of the substance in a given assay were measured in the media of the control wells. After 48 hours of treatment live cells were detected by CellTiter® 96 Aqueous Non-radioactive Cell Proliferation Assay (Promega, Madison, Wis., USA) to determine the number of live cells in the treated and in the control samples.
MTS is converted to formazane in the living cells, which product is dissolved in the media, and its quantity/absorbance can be measured at 490 nm. […] Then, for the determination of the ratio of live cells 20 μl MTS and 1 μl PMS are added to 100 μl media. The enzyme reaction occurs at incubation at 37° C., 5% CO2 for 1 to 4 hours. Formazane produced by the cells is read on ELISA plate reader, from which the number of living cells can be obtained indirectly. Since the inventors performed the experiments in 24 well plates with 50.000 cell/well, the protocol had to be modified. After treatment of the cells for an appropriate time (type of compound, different concentrations), the incubation media (2 ml) containing the examined substance was removed, then 400 μl media containing reagents in the same concentration as given above (333.3 μl media, 66.6 μl MTS, and 3.3 μl PMS per well) was pipetted to the cells. To be able to use ELISA plate reader (Multiskan R C, Thermo Labsystems, Franklin, Mass., USA) 400 μl sample from each single well of the 24 well plate was pipetted into four wells of a 96 well plate (Micromethod plates 96 wells flat form) in 100 μl aliquots. That also helped to eliminate possible errors due to inconsistent pipetting. On each 24 well plate 4 wells were control samples. From these 3 times 100 μl was pipetted onto the 96 well plates, so, altogether 12 controls were provided on each 96 well plate. The remaining 4 wells were for background measurements with 100 μl media containing MTS and PMS as described above.

[4] = tested on: pseudorabies Bartha type viruses; format: cell-based, pseudorabies virus; conditions: 100 μM

CCNc1c(F)c(F)c2c(c1F)C(=O)N(c1c(C(C)C)cccc1C(C)C)C2=O [Compound 3b, 2-(2,6-diisopropylphenyl)-5-(ethylamino)-4,6,7-trifluoroisoindole-1,3-dione]
effect on growth of the subcutaneous primary tumor (tumor mass) (human melanoma (HT168M1) [1]): significantly (p=0.05) reduced tumor size | further metastasis of the adhered cells (human melanoma (HT168M1) [2]; posttreatment 40 mg/kg per os from day 7, five times per week for three weeks, not statistically significant): slightly inhibited | number of metastases (human melanoma (HT168M1) [2]; pretreatment 40 mg/kg per os for 5 days before implantation, p=0.05, FIG. 7): significantly reduced the number of metastases | binding to SEC22b protein (SEC22b protein): can also bind to SEC22b protein | inhibition of RVH melanoma cells (cytotoxic effect) [3]: strongest inhibition | entry of the viruses into the cell [4]: does not inhibit the entry of the viruses into the cell | release and spreading of the viruses in vitro [4]: does inhibit their release and thus their spreading in vitro | plaque size (viral positive cells) ([4]; 24 hours): 2-6 cells/plaque

Source: patent US8232299B2, “Phthalimide derivatives that influence cellular vesicular systems, pharmaceutical compositions, and use thereof” (Avidin Kft., priority 2007, dated 2012)
